# Data published in ChEMBL document CHEMBL5465560, “Selectivity Literature for EUbOPEN Chemogenomic Library” (2024).
# How the values were obtained:
# [1] = target: T1, Mitogen-activated protein kinase kinase kinase 13 (Homo sapiens) (UniProt O43283); conditions: at 10 µM
# T1 sequence (whole entry): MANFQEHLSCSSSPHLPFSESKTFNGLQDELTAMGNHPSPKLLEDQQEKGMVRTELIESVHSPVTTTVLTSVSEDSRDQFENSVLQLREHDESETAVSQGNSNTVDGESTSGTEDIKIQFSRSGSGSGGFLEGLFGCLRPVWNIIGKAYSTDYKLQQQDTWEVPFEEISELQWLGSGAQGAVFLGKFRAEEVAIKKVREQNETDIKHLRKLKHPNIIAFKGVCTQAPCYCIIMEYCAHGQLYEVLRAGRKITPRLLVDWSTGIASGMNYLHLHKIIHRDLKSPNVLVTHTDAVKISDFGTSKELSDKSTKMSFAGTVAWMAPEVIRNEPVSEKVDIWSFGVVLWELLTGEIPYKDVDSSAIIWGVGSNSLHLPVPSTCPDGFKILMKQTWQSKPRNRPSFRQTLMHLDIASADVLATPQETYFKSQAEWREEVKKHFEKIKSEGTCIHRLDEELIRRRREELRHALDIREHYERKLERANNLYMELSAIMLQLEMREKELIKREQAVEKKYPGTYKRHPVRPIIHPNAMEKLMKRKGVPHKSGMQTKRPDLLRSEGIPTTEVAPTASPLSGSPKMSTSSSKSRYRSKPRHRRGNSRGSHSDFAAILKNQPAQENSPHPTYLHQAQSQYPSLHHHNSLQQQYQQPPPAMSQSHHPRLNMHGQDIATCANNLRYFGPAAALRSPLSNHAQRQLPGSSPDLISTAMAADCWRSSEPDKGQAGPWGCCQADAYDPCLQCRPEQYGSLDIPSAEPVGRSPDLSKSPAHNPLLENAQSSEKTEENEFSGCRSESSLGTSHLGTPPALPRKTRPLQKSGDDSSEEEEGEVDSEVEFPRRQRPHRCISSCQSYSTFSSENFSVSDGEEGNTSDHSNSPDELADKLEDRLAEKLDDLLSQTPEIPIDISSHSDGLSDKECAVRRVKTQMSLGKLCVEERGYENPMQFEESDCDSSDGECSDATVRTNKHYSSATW
# [2] = target: T2, Cyclin-dependent kinase-like 5 (Homo sapiens) (UniProt O76039); assay: Selectivity interaction (KinomeScan (DiscoverX)) EUB0001049a CDKL5; conditions: at 1 µM
# T2 sequence (whole entry): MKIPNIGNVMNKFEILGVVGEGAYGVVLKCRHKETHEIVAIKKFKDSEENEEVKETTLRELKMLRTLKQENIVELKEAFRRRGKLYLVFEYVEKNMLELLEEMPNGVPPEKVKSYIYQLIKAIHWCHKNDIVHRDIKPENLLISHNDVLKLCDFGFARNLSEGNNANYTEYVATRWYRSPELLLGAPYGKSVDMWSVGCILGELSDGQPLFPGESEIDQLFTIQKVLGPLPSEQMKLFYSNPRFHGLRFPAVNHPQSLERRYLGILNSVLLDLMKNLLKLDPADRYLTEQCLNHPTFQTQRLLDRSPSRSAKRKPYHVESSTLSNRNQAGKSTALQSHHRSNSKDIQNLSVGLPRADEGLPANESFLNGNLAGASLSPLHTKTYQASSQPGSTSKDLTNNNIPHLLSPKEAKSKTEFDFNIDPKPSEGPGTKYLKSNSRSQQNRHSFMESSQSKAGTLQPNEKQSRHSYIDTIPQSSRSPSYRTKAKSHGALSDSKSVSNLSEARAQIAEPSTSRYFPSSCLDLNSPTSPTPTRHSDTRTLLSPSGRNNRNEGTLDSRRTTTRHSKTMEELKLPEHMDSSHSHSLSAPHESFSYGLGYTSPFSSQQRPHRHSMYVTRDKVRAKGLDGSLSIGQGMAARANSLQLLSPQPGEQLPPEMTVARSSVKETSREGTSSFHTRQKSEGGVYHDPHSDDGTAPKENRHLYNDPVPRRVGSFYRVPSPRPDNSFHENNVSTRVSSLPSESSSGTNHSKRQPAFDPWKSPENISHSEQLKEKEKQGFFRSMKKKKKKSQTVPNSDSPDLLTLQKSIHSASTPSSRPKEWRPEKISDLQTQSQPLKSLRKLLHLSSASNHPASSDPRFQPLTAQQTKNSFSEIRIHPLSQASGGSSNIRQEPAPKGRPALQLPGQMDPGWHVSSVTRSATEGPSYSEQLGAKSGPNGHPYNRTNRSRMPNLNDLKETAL
# [3] = target: Macrophage-stimulating protein receptor (Homo sapiens, UniProt Q04912); assay: Selectivity interaction (KinomeScan (DiscoverX)) EUB0000595a MST1R; conditions: at 10 µM
# [4] = target: Ribosomal protein S6 kinase alpha-4 (Homo sapiens) (UniProt O75676); assay: Selectivity interaction (KinomeScan (DiscoverX)) EUB0001079a RPS6KA4; conditions: at 1 µM
# Sequence of Ribosomal protein S6 kinase alpha-4 (Homo sapiens) (O75676 whole entry, looked up): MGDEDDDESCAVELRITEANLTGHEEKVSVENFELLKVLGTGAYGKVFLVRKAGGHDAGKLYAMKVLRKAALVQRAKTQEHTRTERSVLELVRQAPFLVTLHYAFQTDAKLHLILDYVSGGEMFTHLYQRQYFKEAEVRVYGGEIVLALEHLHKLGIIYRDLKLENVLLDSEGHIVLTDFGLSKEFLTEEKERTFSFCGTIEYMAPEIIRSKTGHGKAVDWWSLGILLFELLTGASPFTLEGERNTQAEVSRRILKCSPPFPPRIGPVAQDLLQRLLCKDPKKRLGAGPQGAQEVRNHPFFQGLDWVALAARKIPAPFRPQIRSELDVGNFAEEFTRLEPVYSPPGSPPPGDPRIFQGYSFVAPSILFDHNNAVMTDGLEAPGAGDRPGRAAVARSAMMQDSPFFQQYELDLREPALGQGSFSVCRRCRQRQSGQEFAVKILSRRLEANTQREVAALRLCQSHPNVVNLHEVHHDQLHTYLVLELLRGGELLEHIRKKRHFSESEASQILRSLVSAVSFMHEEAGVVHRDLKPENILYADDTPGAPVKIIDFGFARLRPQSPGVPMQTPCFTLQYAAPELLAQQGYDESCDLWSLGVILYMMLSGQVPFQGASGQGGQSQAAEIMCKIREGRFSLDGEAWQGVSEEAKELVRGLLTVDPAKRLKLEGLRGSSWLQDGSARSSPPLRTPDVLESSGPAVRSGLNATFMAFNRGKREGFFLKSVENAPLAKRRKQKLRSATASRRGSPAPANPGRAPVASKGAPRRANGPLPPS
# Sequence of Macrophage-stimulating protein receptor (Q04912 25-304 limits assumed): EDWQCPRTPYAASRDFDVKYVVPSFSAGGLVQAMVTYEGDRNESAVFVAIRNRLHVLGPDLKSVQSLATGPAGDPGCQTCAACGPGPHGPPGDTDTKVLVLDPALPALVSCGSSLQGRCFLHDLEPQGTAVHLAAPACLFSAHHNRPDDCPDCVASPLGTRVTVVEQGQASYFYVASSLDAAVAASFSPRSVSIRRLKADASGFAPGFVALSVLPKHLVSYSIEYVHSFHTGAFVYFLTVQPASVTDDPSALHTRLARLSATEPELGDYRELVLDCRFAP
# Sequence of Macrophage-stimulating protein receptor (Q04912 310-1400 limits assumed): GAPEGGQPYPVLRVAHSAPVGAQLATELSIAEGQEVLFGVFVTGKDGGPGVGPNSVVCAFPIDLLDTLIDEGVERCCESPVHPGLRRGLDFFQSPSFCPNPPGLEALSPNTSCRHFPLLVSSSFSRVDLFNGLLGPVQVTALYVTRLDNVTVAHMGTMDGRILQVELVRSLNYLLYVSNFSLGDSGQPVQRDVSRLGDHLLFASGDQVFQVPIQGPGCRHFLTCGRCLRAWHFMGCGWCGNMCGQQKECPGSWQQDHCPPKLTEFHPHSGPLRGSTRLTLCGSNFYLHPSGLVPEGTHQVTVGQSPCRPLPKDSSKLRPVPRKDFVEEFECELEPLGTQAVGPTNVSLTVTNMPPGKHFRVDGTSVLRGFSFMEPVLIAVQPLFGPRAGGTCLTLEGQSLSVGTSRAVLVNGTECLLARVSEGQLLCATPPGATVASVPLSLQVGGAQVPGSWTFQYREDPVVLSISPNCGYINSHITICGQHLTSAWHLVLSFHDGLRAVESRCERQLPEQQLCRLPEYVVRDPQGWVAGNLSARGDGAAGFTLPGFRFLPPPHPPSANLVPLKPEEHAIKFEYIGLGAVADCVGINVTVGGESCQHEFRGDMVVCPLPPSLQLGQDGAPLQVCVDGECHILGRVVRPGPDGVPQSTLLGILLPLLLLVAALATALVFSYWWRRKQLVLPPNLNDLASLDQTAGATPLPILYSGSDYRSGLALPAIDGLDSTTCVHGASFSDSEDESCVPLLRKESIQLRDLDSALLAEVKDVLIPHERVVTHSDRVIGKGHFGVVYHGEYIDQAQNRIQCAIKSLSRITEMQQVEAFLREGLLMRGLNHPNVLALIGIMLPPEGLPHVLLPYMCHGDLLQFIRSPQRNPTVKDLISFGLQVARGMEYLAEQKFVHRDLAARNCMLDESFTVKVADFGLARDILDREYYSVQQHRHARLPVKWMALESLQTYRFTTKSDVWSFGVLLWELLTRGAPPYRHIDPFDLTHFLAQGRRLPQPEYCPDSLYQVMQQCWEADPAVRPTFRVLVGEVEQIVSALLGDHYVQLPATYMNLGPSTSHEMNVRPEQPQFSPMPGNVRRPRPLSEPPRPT
smiles,measurement,setting,value
Cc1cc([C@@H](C)Nc2ccccc2C(=O)O)c2nc(N3CCOCC3)cc(=O)n2c1 [AZD-6482],% of control,[1],100%
COc1cc(Nc2nc(C)cc(-c3cnn4nc(OC)ccc34)n2)cc(C(F)(F)F)c1,% of control,[2],82%
COCC(=O)NC/C=C/c1ccc2ncnc(Nc3ccc(Oc4ccc(C)nc4)c(C)c3)c2c1 [CP-724714],% of control,[3],100%
Nc1cnc(N2CCc3cc(S(=O)(=O)Nc4c(F)cc(Cl)cc4F)cc(N4CCCC4=O)c32)nc1 [TP-020n],% of control,[4],100%
